Measured values: patent publication US9067900B2, “Diaminophenothiazine compounds, a method for preparing same and uses thereof” (PHARMA HYDRO DEVELOPMENT—P.H.D., priority 2007, dated 2015)

How the values were obtained:
[1] = tested on: Escherichia coli CIP 54 127; test: Biocidal activity test according to EN standards (EN 1040, EN 1275); type: cell-based; details: 50 to 100 mg/l in distilled water, contact time 15 to 30 mn
[2] = tested on: Candida albicans IP 48.72; test: as above; type: cell-based; details: under light
Procedure: The biocidal tests were carried out according to Directive NF EN 1040. Tests were conducted at the same time in the dark and under white light, corresponding to a moderate sunshine (400 KJ/M2) using an ordinary incandescent or halogen lamp. Some tests may be carried out up to 1.3 mW/Cm^2 […] The color change is all the more fast that the solution is illuminated under white light. The tests are performed in sterile glass flasks according to disinfection test standards. Illumination is a sun light illumination or an artificial light illumination and is compared with tests carried out in the dark (glass material is wrapped with aluminium foil). Biocidal activity tests are carried out according to EN standards, for example EN 1040, EN 1275, on reference microbial strains registered under ATCC and CIP, and validated by an accredited laboratory. […] These tests validate as biocide agents as defined by the European pharmacopoeia if the infectious titer reduction is higher than 5. Tests are carried out under white light versus a control in the dark. In all cases, white light accelerates the biocidal phenomenon, for example the biocidal activity under light requires a 15 min-contact time, as opposed to 30 mn in the dark. It should be noted that the DAP 2,8 series may have a “range effect”, that is to say there is a concentration range that is more efficient as compared to higher concentrations.

albino rabbits [3] = test: Eye irritation/corrosion, OCDE 405 classification; type: in vivo; details: 100 mg/l to 1000 mg/l
albino rabbits [4] = test: Skin irritation/corrosion, OCDE 404 classification; type: in vivo; details: 100 mg/l to 1000 mg/l
[5] = tested on: Legionella pneumophila subsp pneumophila CIP 103 854; type: cell-based; details: 100 mg/l in distilled water, contact time 15 to 30 mn; dichlorhydrate solution
[6] = tested on: Pseudomonas aeruginosa CIP 103 467; test: Biocidal activity test according to EN standards (EN 1040, EN 1275); type: cell-based; details: 50 to 100 mg/l in distilled water, contact time 15 to 30 mn

CN(C)c1ccc2c(c1)Nc1cc(N(C)C)ccc1S2 [Example 1, N,N,N′,N′-tetramethyl-10H-phenothiazine-2,8-diamine]
Infectious titer reduction (log) [1]: >5.5 log | Infectious titer reduction (log) ([2]; 100 mg/l in distilled water, contact time 30 mn): 3.2 log | Infectious titer reduction ([2]; 250 or 500 mg/l, 30 mn of contact): < 2.8 log | irritant or corrosive activity, eyes (albino rabbits [3]): non-irritant | irritant or corrosive activity, skin (albino rabbits [4]): non-irritant | Infectious titer reduction (log) [5]: >5.5 log | Infectious titer reduction (log) [6]: >5.5 log

CCCN(CCC)c1ccc2c(c1)Nc1cc(N3CCN(C)CC3)ccc1S2 [Example 8, [8-(4-Methyl-piperazin-1-yl)-10H-phenothiazin-2-yl]-dipropylamine]
melting point: 122 to 124 °C

CCCCN(CCCC)c1ccc2c(c1)Nc1cc(N3CCN(C)CC3)ccc1S2 [Example 11, N,N-Dibutyl-[8-(4-methylpiperazin-1-yl)-10H-phenothiazin-2-yl]amine]
melting point: 150 to 152 °C

CCCNc1ccc2c(c1)Nc1cc(N(C)C)ccc1S2 [Example 13, N,N-Dimethyl-N′-propyl-10H-phenothiazine-2,8-diamine]
melting point: 158 to 160 °C
